Laboratory results published in publication PMC10878397, “Development of Potent Dual BET/HDAC Inhibitors via Pharmacophore Merging and Structure-Guided Optimization” (ACS Chemical Biology, 2024).
Values joined by “and” are separate entries in the source; they are usually repeats but may differ in a detail not shown here. Identical values can stand only once. Like-named read-outs stand apart in the source and are kept apart here.

Experiments:
[1] = system: HCC2429 cells; experiment: CellTiter-Glo cell viability assay; assay type: cell-based; conditions: Homo sapiens, HCC2429, 72 h; treatment for 3 days
Protocol: (§1) PDAC cell line PaTu8988T was obtained from ATCC and cultured in Dulbecco’s modified Eagle’s medium (DMEM) containing 10% FBS, 25 mM glucose, […], 1 mM sodium pyruvate, and 1% penicillin–streptomycin. Nut midline carcinoma cell line HCC2429 was kindly provided by Lead Discovery Center GmbH (Dortmund, Germany) and was cultured in RPMI1640 medium containing 10% FBS, 2 mM L-glutamine, and 1% penicillin–streptomycin. Cell line PaTu8988T was authenticated using the Multiplex human Cell line Authentication Test (MCA) by Multiplexion GmbH, and cell line HCC2429 was authenticated using short tandem repeat (STR) profiling.
(§2) The assays were performed using Promega’s CellTiter-Glo Luminescent Cell Viability Assay kit (Cat. #G7571). First, compounds dissolved in DMSO were printed in 96-well plates (Corning) by using a Tecan D300e digital dispenser. Then, cells were seeded into the compound-printed plates using a Thermo Multidrop reagent dispenser. 72 h later, one volume of diluted CellTiter-Glo reagent (1:4 dilution with PBS) was added to individual wells by using the Thermo Multidrop reagent dispenser again. Plates were shaken for 2 min and incubated for 10 min in the dark. Luminescent signals were read by using a Tecan Spark Multimode Microplate Reader. The values were normalized to the DMSO control wells and presented as a percentage of cell viability. Dose–response curves were drawn with GraphPad Prism 8.

[2] = system: PaTu8988T cells; experiment: CellTiter-Glo cell viability assay; assay type: cell-based; conditions: Homo sapiens, PaTu 8988t, 72 h; treatment for 3 days
Protocol: as §1, §2

[3] = biological target: T1, BRD4 BD1 (Homo sapiens, UniProt O60885); experiment: NanoBRET target engagement assay (HEK293T); assay type: cell-based; parameters: BRD4 bromodomains and full-length HDACs were obtained as plasmids cloned in-frame with a terminal NanoLuc fusion; host or cells: HEK293T
Protocol: (§3) The assay was performed as described previously.[17],[59] In brief, BRD4 bromodomains and full-length HDACs were obtained as plasmids cloned in-frame with a terminal NanoLuc fusion (Promega). Plasmids were transfected into HEK293T cells using FuGENE HD (Promega, E2312), and proteins were allowed to express for 20 h. Serially diluted inhibitor and the corresponding NanoBRET Tracer (Promega) at a concentration determined previously as the tracer KD, app were pipetted into white 384-well plates (Greiner #781207) for BRD assays or white 96-well plates (Corning #3600) for HDAC using an Echo acoustic dispenser (Labcyte). The corresponding protein-transfected cells were added and reseeded at a density of 2 × 10^5 cells/mL after trypsinization and resuspended in Opti-MEM without phenol red (Life Technologies). The system was allowed to equilibrate for 2 h at 37 °C/5% CO2 prior to BRET measurements. To measure BRET, NanoBRET NanoGlo substrate + Extracellular NanoLuc Inhibitor (Promega, N2540) was added as per the manufacturer’s protocol, and filtered luminescence was measured on a PHERAstar plate reader (BMG Labtech) equipped with a luminescence filter pair (450 nm BP filter (donor) and 610 nm LP filter (acceptor)). For lysed-mode NanoBRET experiments, digitonin (Promega, #G9441) was added as per the manufacturer’s instructions to a final concentration of […].

[4] = biological target: T2, BRD4 BD2 (Homo sapiens, UniProt O60885); experiment: NanoBRET target engagement assay (HEK293T); assay type: cell-based; parameters: BRD4 bromodomains and full-length HDACs were obtained as plasmids cloned in-frame with a terminal NanoLuc fusion; host or cells: HEK293T
Protocol: as §3

[5] = biological target: T1, BRD4 BD1; experiment: DSF thermal shift assay; assay type: binding; parameters: purchased in-house (SGC Frankfurt recombinant bromodomain DSF panel)
Protocol: (§4) The effects of inhibitor binding on the apparent melting temperature of recombinant bromodomains were determined by DSF in a 96-well plate (Starlab) at a protein concentration of 2 μM with 10 μΜ compound in buffer containing 25 mM HEPES, pH 7.5, 150 mM NaCl, and 0.5 mM TCEP. […] Protein unfolding profiles were recorded using an MX3005P real-time qPCR instrument (Agilent; excitation/emission filters = 492/610 nm) while increasing the temperature from 25 to 95 °C at a heating rate of 3 °C/min. Tm values were calculated after fitting the fluorescence curves to the Boltzmann equation. Differences in melting temperature upon compound binding are given as ΔTm = Tm (protein with inhibitor) – Tm (protein with DMSO control). Measurements were performed in triplicates.

[6] = biological target: T2, BRD4 BD2; experiment: DSF thermal shift assay; assay type: binding; parameters: purchased in-house (SGC Frankfurt recombinant bromodomain DSF panel)
Protocol: as §4

[7] = biological target: HDAC1 (Homo sapiens, UniProt Q13547); experiment: NanoBRET target engagement assay (HEK293T); assay type: cell-based; parameters: BRD4 bromodomains and full-length HDACs were obtained as plasmids cloned in-frame with a terminal NanoLuc fusion; host or cells: HEK293T
Protocol: (§5) The assay was performed as described previously.[17],[59] In brief, BRD4 bromodomains and full-length HDACs were obtained as plasmids cloned in-frame with a terminal NanoLuc fusion (Promega). Plasmids were transfected into HEK293T cells using FuGENE HD (Promega, E2312), and proteins were allowed to express for 20 h. […] The corresponding protein-transfected cells were added and reseeded at a density of 2 × 10^5 cells/mL after trypsinization and resuspended in Opti-MEM without phenol red (Life Technologies). The system was allowed to equilibrate for 2 h at 37 °C/5% CO2 prior to BRET measurements. […] For lysed-mode NanoBRET experiments, digitonin (Promega, #G9441) was added as per the manufacturer’s instructions to a final concentration of […].

[8] = biological target: HDAC2 (Homo sapiens, UniProt Q92769); experiment: NanoBRET target engagement assay (HEK293T); assay type: cell-based; parameters: BRD4 bromodomains and full-length HDACs were obtained as plasmids cloned in-frame with a terminal NanoLuc fusion; host or cells: HEK293T
Protocol: as §5

[9] = biological target: BRD4 bromodomains (Homo sapiens, UniProt O60885); experiment: NanoBRET target engagement assay, both bromodomains; assay type: cell-based
Protocol: as §3

[10] = biological target: HDAC3 (Homo sapiens, UniProt O15379); experiment: NanoBRET target engagement assay (HEK293T); assay type: cell-based; parameters: BRD4 bromodomains and full-length HDACs were obtained as plasmids cloned in-frame with a terminal NanoLuc fusion; host or cells: HEK293T; conditions: intact cells
Protocol: as §5

[11] = parameters: method as in PMID 30649740; conditions: cited from earlier work
[12] = 10 μM compound, 2 μM protein, read-out: DSF ΔTm BRD4 BD1
[13] = 10 μM compound, 2 μM protein, read-out: DSF ΔTm BRD4 BD2
[14] = read-out: DSF ΔTm BRD4 BD1, 10 μM compound, 2 μM protein
[15] = read-out: DSF ΔTm BRD4 BD2, 10 μM compound, 2 μM protein

HDAC1, sequence (Q13547 whole entry, the tested form may be a part): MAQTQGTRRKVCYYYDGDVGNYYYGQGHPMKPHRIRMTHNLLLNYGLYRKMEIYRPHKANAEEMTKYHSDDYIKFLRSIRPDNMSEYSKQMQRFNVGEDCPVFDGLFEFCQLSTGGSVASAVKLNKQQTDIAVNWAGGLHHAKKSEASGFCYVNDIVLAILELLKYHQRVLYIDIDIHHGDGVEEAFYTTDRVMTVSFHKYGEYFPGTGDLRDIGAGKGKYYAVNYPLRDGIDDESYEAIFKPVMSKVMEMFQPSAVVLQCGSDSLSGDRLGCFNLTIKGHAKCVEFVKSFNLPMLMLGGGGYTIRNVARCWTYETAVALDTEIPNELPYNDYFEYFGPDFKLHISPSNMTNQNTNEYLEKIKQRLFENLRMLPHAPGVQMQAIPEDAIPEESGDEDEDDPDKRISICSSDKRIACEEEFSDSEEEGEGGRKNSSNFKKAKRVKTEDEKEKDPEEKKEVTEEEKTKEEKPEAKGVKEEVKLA
HDAC2, sequence (Q92769 whole entry, the tested form may be a part): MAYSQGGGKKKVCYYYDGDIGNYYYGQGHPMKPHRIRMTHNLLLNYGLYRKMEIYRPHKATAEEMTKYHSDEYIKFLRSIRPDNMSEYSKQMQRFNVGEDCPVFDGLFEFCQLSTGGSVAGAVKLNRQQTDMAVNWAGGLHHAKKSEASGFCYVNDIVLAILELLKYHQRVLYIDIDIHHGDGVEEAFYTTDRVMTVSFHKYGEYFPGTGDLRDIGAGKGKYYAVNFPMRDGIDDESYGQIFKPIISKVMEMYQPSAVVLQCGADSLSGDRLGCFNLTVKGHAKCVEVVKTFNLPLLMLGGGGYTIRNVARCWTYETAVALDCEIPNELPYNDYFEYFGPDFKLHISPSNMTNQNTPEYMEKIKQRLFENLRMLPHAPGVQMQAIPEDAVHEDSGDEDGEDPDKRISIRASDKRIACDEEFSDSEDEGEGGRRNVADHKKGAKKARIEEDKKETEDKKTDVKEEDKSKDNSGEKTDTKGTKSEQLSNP
HDAC3, sequence (O15379 whole entry, the tested form may be a part): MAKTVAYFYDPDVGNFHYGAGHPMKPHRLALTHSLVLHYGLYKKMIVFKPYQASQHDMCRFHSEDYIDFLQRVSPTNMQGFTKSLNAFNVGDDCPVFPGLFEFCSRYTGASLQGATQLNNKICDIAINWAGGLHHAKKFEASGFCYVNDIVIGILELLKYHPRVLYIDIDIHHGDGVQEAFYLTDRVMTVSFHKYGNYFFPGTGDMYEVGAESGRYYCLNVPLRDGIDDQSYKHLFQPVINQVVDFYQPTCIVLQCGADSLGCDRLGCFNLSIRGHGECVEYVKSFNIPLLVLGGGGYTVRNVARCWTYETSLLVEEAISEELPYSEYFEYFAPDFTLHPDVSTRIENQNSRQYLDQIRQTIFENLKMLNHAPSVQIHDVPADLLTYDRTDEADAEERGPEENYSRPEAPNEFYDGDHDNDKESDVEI

SMILES | IC50 [1] [µM] | IC50 [2] [µM] | ΔTm at 10 µM [5, 12] [°C] | ΔTm at 10 µM [6, 13] [°C] | EC50 ([7]; intact cells) | EC50 ([7]; lysed cells (digitonin)) [µM] | EC50 ([8]; intact cells) | EC50 ([3]; intact cells) [µM] | EC50 ([4]; intact cells) [µM] | further results
CC(=O)Nc1ccc(C(=O)Nc2ccccc2N)cc1 [CI-994, reference compound] | 1.8 ± 0.2 | 13.1 ± 2.4 | – | – | – | – | – | – | – | EC50 ([3]; lysed cells (digitonin)): > 50 µM; EC50 ([4]; lysed cells (digitonin)): > 50 µM
Cc1cc(/N=N/c2ccc(S(=O)(=O)Nc3ccccn3)cc2)c(N)cc1O [MS436, reference compound] | 0.81 ± 0.15 | 10.4 ± 1.2 | 4 ± 0.4 | ~3 | 18.8 ± 1 µM | > 50 | > 50 µM | – | – | DSF ΔTm BRD4 BD2 ([6]; 10 μM compound, 2 μM protein): 2.9 ± 0.1 K; EC50 ([8]; lysed cells (digitonin)): > 50 µM
Cc1cc(/N=N/c2ccc(C(=O)Nc3ccccc3N)cc2)c(N)cc1O [NB161] | – | – | 5.3 | ~3 | 10.8 ± 5.1 µM | – | > 50 µM | – | – | DSF ΔTm BRD4 BD1 ([5]; 10 μM compound, 2 μM protein): 5.2 ± 0.3 K
Cc1cc(/N=N/c2ccc(C(=O)Nc3ccccc3N)cc2)c2cc[nH]c2c1O [NB390] | – | – | 7.5 ± 0.2 | 5.2 ± 0.2 | 2.1 ± 0.7 µM | – | 1.3 ± 0.9 µM | 0.19 ± 0.03 | 0.05 ± 0.01 | –
Cn1cc(-c2ccc3cc(C(=O)Nc4ccccc4N)ccc3n2)c2cc[nH]c2c1=O [NB437] | – | – | – | – | 23.2 µM and 23 µM | 11 ± 1.8 | 24.8 µM and 25 µM | 0.18 ± 0.03 | 0.2 ± 0.03 | EC50 ([9]; BD1 and BD2, intact cells, read-out: NanoBRET EC50 BRD4 bromodomains): 0.1 to 0.4 µM; DSF ΔTm BRD4 BD1 ([5]; 10 μM compound, 2 μM protein): 4.0 ± 0.2 K; ΔTm at 10 µM [5, 14]: 4 to 5 °C; DSF ΔTm BRD4 BD2 ([6]; 10 μM compound, 2 μM protein): 4.8 ± 0.2 K; ΔTm at 10 µM [6, 15]: 4 to 5 °C
Cn1cc(-c2ccc(C(=O)Nc3ccccc3N)cc2N)c2cc[nH]c2c1=O [NB469] | – | – | 0.9 ± 0.2 | 1.7 ± 0.3 | 34.4 ± 5.8 µM | 32.2 ± 7.1 | 39.7 ± 9 µM | 3.7 ± 0.5 | 2.1 ± 0.4 | –
COc1cc(C(=O)Nc2ccccc2N)ccc1-c1cn(C)c(=O)c2[nH]ccc12 [NB470] | – | – | 3.8 ± 0.1 | 4.3 ± 0.3 | > 50 µM | > 50 | > 50 µM | 0.39 ± 0.06 | 0.23 ± 0.07 | –
Cn1cc(C(=O)Nc2ccc(C(=O)Nc3ccccc3N)cc2)c2cc[nH]c2c1=O [NB480] | – | – | 1.9 ± 0.2 | 1.9 ± 0.3 | 2.3 ± 0.6 µM | – | 3.7 ± 2.4 µM | 2.6 ± 0.1 | 2.9 ± 0.2 | –
Cn1cc(-c2ccc(C(=O)Nc3ccccc3N)nn2)c2cc[nH]c2c1=O [NB501] | 0.54 ± 0.06 | 8.5 ± 1.3 | – | – | 16.8 ± 6.7 µM | – | 4.6 ± 0.6 µM | 0.39 ± 0.02 | 0.29 ± 0.12 | fold reduced binding to BRD4 compared with NB500 ([9]; NanoBRET): about 2 fold; ΔTm at 10 µM [5, 14]: 2.9 ± 0.3 °C; ΔTm at 10 µM [6, 15]: 3.6 ± 0.2 °C
Cn1cc(-c2ccc(C(=O)Nc3ccc(F)cc3N)nc2)c2cc[nH]c2c1=O [NB507] | 0.24 ± 0.02 | 5.2 ± 0.9 | – | – | 36.3 µM and 36 µM | 8.2 ± 2.1 | 14.2 ± 4.5 µM | 0.34 ± 0.1 | 0.1 ± 0.01 | EC50 [10]: > 50 µM
Cn1cc(-c2ccc(C(=O)Nc3cc(-c4ccco4)ccc3N)nc2)c2cc[nH]c2c1=O [NB513] | 0.32 ± 0.04 | 2.6 ± 0.3 | – | – | 1.3 ± 1 µM | – | 2.9 ± 1.7 µM | 0.37 ± 0.05 | 0.31 ± 0.05 | –
Cn1cc(-c2ccc(C(=O)Nc3cc(-c4cccs4)ccc3N)nc2)c2cc[nH]c2c1=O [NB514] | 0.55 ± 0.06 | 4.1 ± 0.7 | – | – | 0.14 ± 0.05 µM | 0.022 ± 0.008 | 0.058 µM and 0.06 µM | 0.29 ± 0.05 | 0.18 ± 0.04 | EC50 [10]: 11.4 ± 6.9 µM
O=C(CCCCCCC(=O)Nc1ccccc1)NO [SAHA, suberoyl anilide hydroxamic acid] | – | – | – | – | – | – | – | – | – | metabolic half-life [11]: 2 h
